Measurements as given in patent publication US20240277713A1 (Kadmon Corporation, LLC, priority 2022, published 2024).
Marks after values point to notes of the source that are not given here.

Tested on: New Zealand White rabbits
Assay: Embryo-fetal developmental toxicity study in New Zealand White rabbits (Example 4);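 further: dams given a detailed clinical exam daily GD 6 to 29, about 4 h after dosing, then laparohysterectomy on GD 29 with external, visceral and skeletal fetal examination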

CC(C)NC(=O)COc1cccc(-c2nc(Nc3ccc4[nH]ncc4c3)c3ccccc3n2)c1 [belumosudil, 2-{3-[4-(1H-indazol-5-ylamino)-2-quinazolinyl]phenoxy}-N-(propan-2-yl) acetamide]
Fetal External Malformation: Short Tail, No. Fetuses (incidence) (50 mg base/kg/day): 0 (0.0)
Fetal External Malformation: Short Tail, No. Litters (incidence) (50 mg base/kg/day): 0 (0.0)
Fetal External Malformations, No. Fetuses (incidence) (50 mg base/kg/day): 1 (0.5)
Fetal External Malformations, No. Litters (incidence) (50 mg base/kg/day): 1 (4.5)
Fetal Skeletal Malformations, No. Fetuses (incidence) (50 mg base/kg/day): 8 (4.3)
Fetal Skeletal Malformations, No. Litters (incidence) (50 mg base/kg/day): 6 (27.3)
Fetal Visceral Variations, No. Fetuses (incidence) (50 mg base/kg/day): 6 (3.2)
Fetal Visceral Variations, No. Litters (incidence) (50 mg base/kg/day): 4 (18.2)
Maternal Food Consumption GD 0-29 (50 mg base/kg/day): 141.1
Maternal Food Consumption GD 6-10 (50 mg base/kg/day): 149.4
Maternal Food Consumption GD 6-19 (50 mg base/kg/day): 142.7
Maternal Food Consumption GD 6-19, % Difference From Control (50 mg base/kg/day): −8.8%
Maternal Food Consumption GD 19-29 (50 mg base/kg/day): 136.0
Mean Fetal Body Weight Females (50 mg base/kg/day): 40.25 g
Mean Fetal Body Weight Genders Combined (50 mg base/kg/day): 40.97 g
Mean Fetal Body Weight Males (50 mg base/kg/day): 41.64 g
Mean Live Litter Size (50 mg base/kg/day): 8.5
Mean Number of Early Resorptions (50 mg base/kg/day): 0.2
Mean Number of Resorptions (Combined) (50 mg base/kg/day): 0.2
Mean Postimplantation Loss (50 mg base/kg/day): 2.42 %/Litter
Number Litters with Viable Fetuses GD29 (50 mg base/kg/day): 22
Number with All Resorptions GD29 (50 mg base/kg/day): 0
Number Aborted (50 mg base/kg/day, 23 females): 0
Number Litters with Viable Fetuses GD29 (50 mg base/kg/day, 23 females): 22
Number Not Pregnant (50 mg base/kg/day, 23 females): 1
Number with All Resorptions GD29 (50 mg base/kg/day, 23 females): 0
Activity decreased, times observed/animals affected (50 mg base/kg/day, GD 0-29): 0/0
Feces few/absent, times observed/animals affected (50 mg base/kg/day, GD 0-29): 0/0
Hair discolored, Brown, Anogenital region, times observed/animals affected (50 mg base/kg/day, GD 0-29): 0/0
Hair discolored, Brown, Ear/left, times observed/animals affected (50 mg base/kg/day, GD 0-29): 12/1
Hair discolored, Brown, Ear/right, times observed/animals affected (50 mg base/kg/day, GD 0-29): 12/1
Hair discolored, Brown, Face, times observed/animals affected (50 mg base/kg/day, GD 0-29): 24/3
Hair discolored, Brown, Hind limb/left, times observed/animals affected (50 mg base/kg/day, GD 0-29): 3/1
Hair discolored, Red, Anogenital region, times observed/animals affected (50 mg base/kg/day, GD 0-29): 0/0
Hair discolored, Red, Face, times observed/animals affected (50 mg base/kg/day, GD 0-29): 0/0
Hair discolored, Red, Forelimb/left, times observed/animals affected (50 mg base/kg/day, GD 0-29): 1/1
Hair discolored, Red, Thoracic region, times observed/animals affected (50 mg base/kg/day, GD 0-29): 1/1
Hair discolored, Yellow, Ear/right, times observed/animals affected (50 mg base/kg/day, GD 0-29): 0/0
Hair discolored, Yellow, Face, times observed/animals affected (50 mg base/kg/day, GD 0-29): 27/2
Hair sparse, Anogenital region, times observed/animals affected (50 mg base/kg/day, GD 0-29): 0/0
Hair sparse, Axillary region/left, times observed/animals affected (50 mg base/kg/day, GD 0-29): 0/0
Hair sparse, Axillary region/right, times observed/animals affected (50 mg base/kg/day, GD 0-29): 0/0
Hair sparse, Cervical region, times observed/animals affected (50 mg base/kg/day, GD 0-29): 0/0
Hair sparse, Ear/left, times observed/animals affected (50 mg base/kg/day, GD 0-29): 0/0
Hair sparse, Ear/right, times observed/animals affected (50 mg base/kg/day, GD 0-29): 0/0
Hair sparse, Forefoot/left, times observed/animals affected (50 mg base/kg/day, GD 0-29): 5/1
Hair sparse, Forefoot/right, times observed/animals affected (50 mg base/kg/day, GD 0-29): 4/1
Hair sparse, Forelimb/left, times observed/animals affected (50 mg base/kg/day, GD 0-29): 5/1
Hair sparse, Hind limb/left, times observed/animals affected (50 mg base/kg/day, GD 0-29): 5/1
Hair sparse, Inguinal region/right, times observed/animals affected (50 mg base/kg/day, GD 0-29): 0/0
Hair sparse, Shoulder/left, times observed/animals affected (50 mg base/kg/day, GD 0-29): 0/0
Hair sparse, Thoracic region, times observed/animals affected (50 mg base/kg/day, GD 0-29): 0/0
Hair sparse, Ventral surface, times observed/animals affected (50 mg base/kg/day, GD 0-29): 0/0
Material in pan/bedding, Red, times observed/animals affected (50 mg base/kg/day, GD 0-29): 0/0
Nail missing, Forefoot/left, times observed/animals affected (50 mg base/kg/day, GD 0-29): 1/1
Scabbed area, Ear/left, times observed/animals affected (50 mg base/kg/day, GD 0-29): 0/0
Scabbed area, Nose/muzzle, times observed/animals affected (50 mg base/kg/day, GD 0-29): 0/0
Skin discolored, Pale, Entire body, times observed/animals affected (50 mg base/kg/day, GD 0-29): 0/0
Swelling, Nose/muzzle, times observed/animals affected (50 mg base/kg/day, GD 0-29): 0/0
Swelling, Vulva, times observed/animals affected (50 mg base/kg/day, GD 0-29): 3/1
Thin, times observed/animals affected (50 mg base/kg/day, GD 0-29): 0/0
Fetal External Malformation: Short Tail, No. Fetuses (incidence) (125 mg base/kg/day): 0 (0.0)
Fetal External Malformation: Short Tail, No. Litters (incidence) (125 mg base/kg/day): 0 (0.0)
Fetal External Malformations, No. Fetuses (incidence) (125 mg base/kg/day): 0 (0.0)
Fetal External Malformations, No. Litters (incidence) (125 mg base/kg/day): 0 (0.0)
Fetal Skeletal Malformations, No. Fetuses (incidence) (125 mg base/kg/day): 10 (6.6)
Fetal Skeletal Malformations, No. Litters (incidence) (125 mg base/kg/day): 6 (31.6)
Fetal Visceral Variations, No. Fetuses (incidence) (125 mg base/kg/day): 11 (7.2)
Fetal Visceral Variations, No. Litters (incidence) (125 mg base/kg/day): 7 (36.8)
Maternal Body Weight Change GD 0-29, % Difference From Control (125 mg base/kg/day): −8.6%
Maternal Body Weight GD 19, % Difference From Control (125 mg base/kg/day): −5.1%
Maternal Food Consumption GD 0-29 (125 mg base/kg/day): 128.8
Maternal Food Consumption GD 0-29, % Difference From Control (125 mg base/kg/day): −11.6%
Maternal Food Consumption GD 6-10 (125 mg base/kg/day): 117.9^b
Maternal Food Consumption GD 6-19 (125 mg base/kg/day): 103.1
Maternal Food Consumption GD 6-19, % Difference From Control (125 mg base/kg/day): −34.1%
Maternal Food Consumption GD 19-29 (125 mg base/kg/day): 149.9^a
Mean Fetal Body Weight Females (125 mg base/kg/day): 41.14 g
Mean Fetal Body Weight Genders Combined (125 mg base/kg/day): 41.09 g
Mean Fetal Body Weight Males (125 mg base/kg/day): 41.61 g
Mean Live Litter Size (125 mg base/kg/day): 8.0
Mean Number of Early Resorptions (125 mg base/kg/day): 0.5
Mean Number of Resorptions (Combined) (125 mg base/kg/day): 0.7
Mean Postimplantation Loss (125 mg base/kg/day): 7.42 %/Litter
Number Litters with Viable Fetuses GD29 (125 mg base/kg/day): 19
Number with All Resorptions GD29 (125 mg base/kg/day): 0
ureter malpositioned, litter incidence (125 mg base/kg/day): 21.1%
Number Aborted (125 mg base/kg/day, 23 females): 1
Number Litters with Viable Fetuses GD29 (125 mg base/kg/day, 23 females): 19
Number Not Pregnant (125 mg base/kg/day, 23 females): 3
Number with All Resorptions GD29 (125 mg base/kg/day, 23 females): 0
Activity decreased, times observed/animals affected (125 mg base/kg/day, GD 0-29): 0/0
Feces few/absent, times observed/animals affected (125 mg base/kg/day, GD 0-29): 0/0
Hair discolored, Brown, Anogenital region, times observed/animals affected (125 mg base/kg/day, GD 0-29): 7/1
Hair discolored, Brown, Ear/left, times observed/animals affected (125 mg base/kg/day, GD 0-29): 0/0
Hair discolored, Brown, Ear/right, times observed/animals affected (125 mg base/kg/day, GD 0-29): 0/0
Hair discolored, Brown, Face, times observed/animals affected (125 mg base/kg/day, GD 0-29): 0/0
Hair discolored, Brown, Hind limb/left, times observed/animals affected (125 mg base/kg/day, GD 0-29): 0/0
Hair discolored, Red, Anogenital region, times observed/animals affected (125 mg base/kg/day, GD 0-29): 1/1
Hair discolored, Red, Face, times observed/animals affected (125 mg base/kg/day, GD 0-29): 2/1
Hair discolored, Red, Forelimb/left, times observed/animals affected (125 mg base/kg/day, GD 0-29): 0/0
Hair discolored, Red, Thoracic region, times observed/animals affected (125 mg base/kg/day, GD 0-29): 0/0
Hair discolored, Yellow, Ear/right, times observed/animals affected (125 mg base/kg/day, GD 0-29): 0/0
Hair discolored, Yellow, Face, times observed/animals affected (125 mg base/kg/day, GD 0-29): 10/1
Hair sparse, Anogenital region, times observed/animals affected (125 mg base/kg/day, GD 0-29): 15/2
Hair sparse, Axillary region/left, times observed/animals affected (125 mg base/kg/day, GD 0-29): 2/1
Hair sparse, Axillary region/right, times observed/animals affected (125 mg base/kg/day, GD 0-29): 2/1
Hair sparse, Cervical region, times observed/animals affected (125 mg base/kg/day, GD 0-29): 1/1
Hair sparse, Ear/left, times observed/animals affected (125 mg base/kg/day, GD 0-29): 0/0
Hair sparse, Ear/right, times observed/animals affected (125 mg base/kg/day, GD 0-29): 0/0
Hair sparse, Forefoot/left, times observed/animals affected (125 mg base/kg/day, GD 0-29): 0/0
